According to US20240018157A1, “CYCLIC COMPOUNDS AND METHODS OF USING SAME” (Schrödinger, Inc., priority 2019, published 2024):

Columns and labels:
[1] = tested on: IL10 secretion, OCI-LY10 cells; experiment: Human IL10 secretion assay, Assay 1 (HTRF); assay type: cell-based; conditions: 24 h incubation, read-out: IL-10 Secretion IC50 [nM] Assay 1
Experimental: (§1) IL10 is one of the cytokines that are regulated via activation of NF-kB signaling. For example, in ABC-DLBCL cell lines, the activated NF-kB signaling leads to increased IL10 secretion. Inhibition of NF-kB signaling has been shown leading to decreased IL10 secretion.
Assay 1: OCI-LY10 cells were seeded in IMEM supplemented with 20% fetal bovine serum at 3×10^5 cells per well in 96-well round bottom plates (Corning 3799, Corning), treated with 100 nL of 3-fold serial compound dilutions, starting at 10 mM. The final vehicle concentration was 0.1% DMSO in all wells. After 24 h incubation, the cells were transferred to 96-PCR plates (Axygen: PCR-96-FLT-C) and centrifuged, then 16 μL of cell culture media was transferred to HTRF plates and IL10 levels were measured using human IL-10 Assay Kits (Cisbio) using HTRF format. The signals were transformed to percentage of remaining activity by using the high control (HC, median of signal from wells containing cells treated with DMSO) and low control (LC, median of signal from wells with no cells). IC50 values (nM) were determined using 4-parametric curve-fitting and Hill coefficient were obtained using Graph Pad Prism (Graph Pad software, Inc, USA) with non-linear regression analysis.

[2] = tested on: IL10 secretion, OCI-LY10 cells; experiment: Human IL10 secretion assay, Assay 2 (Meso Scale Discovery); assay type: cell-based; conditions: 24 h incubation, MSD, read-out: IL-10 Secretion IC50 [nM] Assay 2
Experimental: as §1
Assay 2: OCI-LY10 cells were seeded in IMEM supplemented with 20% fetal bovine serum at 4.8×10^5 cells per 160 μL per well in 96-well V-bottom cell culture plates (coming, 3894), treated with 120 nL of 3-fold serial compound dilutions, starting at 4 mM. The final vehicle concentration was 0.075% DMSO in all wells. After a 24 h incubation, human IL-10 pre-coated plates (Meso Scale Discovery) were washed 3 times with PBST, and 50 μL culture medium was aspirated into the MSD plate and incubated at 4° C. overnight. The supernatant was then discarded and the wells were washed 3 times with PBST. SULFO-TAG Anti-human IL-10 Antibody (50×) was diluted 50 fold according to the Meso Scale Protocol, then 25 μL of SULFO-TAG Anti-human IL-10 Antibody (1×) was added. After 2 h of incubation at RT, the supernatant was discarded and the well was washed 3 times with PBST. 2× read buffer was added and the signal was read on an MSD Sector S600. The effect of a particular compound on IL10 secretion is shown relative to the effect of DMSO; set as 100%. IC50 values (nM) were determined using 4-parametric curve-fitting.

[3] = biological target: full-length MALT1 protein His-MALT1(1-824) (Homo sapiens (Human), UniProt Q9UDY8); experiment: MALT1 protease assay, Assay 2 (1 nM MALT1, Ac-LRSR-AMC substrate); assay type: biochemical; conditions: 1 nM MALT1, 50 μM Ac-LRSR-AMC, 2 h pre-incubation, 8 hr incubation at RT
Sequence of full-length MALT1 protein His-MALT1(1-824) (Q9UDY8 whole entry): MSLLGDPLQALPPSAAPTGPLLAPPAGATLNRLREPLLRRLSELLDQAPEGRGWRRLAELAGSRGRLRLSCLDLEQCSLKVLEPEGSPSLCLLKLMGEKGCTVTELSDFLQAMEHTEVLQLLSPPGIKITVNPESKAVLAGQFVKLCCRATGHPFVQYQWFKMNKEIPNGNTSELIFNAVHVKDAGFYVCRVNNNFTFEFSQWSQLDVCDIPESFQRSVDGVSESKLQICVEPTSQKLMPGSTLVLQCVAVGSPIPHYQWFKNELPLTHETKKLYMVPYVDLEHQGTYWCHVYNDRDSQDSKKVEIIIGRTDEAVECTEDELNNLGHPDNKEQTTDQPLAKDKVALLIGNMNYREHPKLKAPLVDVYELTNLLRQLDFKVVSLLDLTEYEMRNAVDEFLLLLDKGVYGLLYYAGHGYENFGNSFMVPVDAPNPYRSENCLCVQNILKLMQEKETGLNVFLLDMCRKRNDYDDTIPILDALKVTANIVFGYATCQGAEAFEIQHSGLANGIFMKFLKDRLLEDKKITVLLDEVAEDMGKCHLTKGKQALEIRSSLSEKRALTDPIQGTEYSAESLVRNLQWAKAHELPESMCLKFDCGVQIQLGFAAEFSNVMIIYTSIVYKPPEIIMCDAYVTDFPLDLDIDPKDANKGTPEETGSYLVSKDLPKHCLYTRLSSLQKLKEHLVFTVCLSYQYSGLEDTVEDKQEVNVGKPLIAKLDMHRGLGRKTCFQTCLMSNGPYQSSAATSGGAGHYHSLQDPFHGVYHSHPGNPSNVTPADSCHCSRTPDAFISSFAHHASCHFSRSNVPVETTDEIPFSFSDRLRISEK
Outline: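 His-MALT1(1-824) from baculovirus-infected insect cells at 1 nM, preincubated 2 h at RT with compound (0.1% DMSO), then 50 μM Ac-LRSR-AMC in 50 mM Tris pH 7.5, 600 mM sodium citrate, 1 mM DTT, 1 mM EDTA, 0.05% BSA. Fluorescence (ex 355/em 460 nm) after 8 h at RT, normalized to enzyme and substrate-only controls. IC50 and Hill coefficient by non-linear regression.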

| SMILES | IC50 [1] [nM] | IC50 [2] [nM] | IC50 [3] [nM] |
| --- | --- | --- | --- |
| CN(C)C(=O)c1ncc(NC(=O)N2C[C@@](C)(C(F)(F)F)c3c2cnc2cc(Cl)nn32)cc1C(F)F [compound 122, (R)-2-chloro-N-(5-(difluoromethyl)-6-(dimethylcarbamoyl)pyridin-3-yl)-8-methyl-8-(trifluoromethyl)-7,8-dihydro-6H-pyrazolo[1,5-a]pyrrolo[2,3-e]pyrimidine-6-carboxamide] | 10 to 100 | 10 to 100 |  |
| C[C@@]1(C(F)(F)F)CN(C(=O)Nc2cnc(-n3nccn3)c(C(F)(F)F)c2)c2cnc3cc(Cl)nn3c21 [compound 40, (R)-N-(6-(2H-1,2,3-triazol-2-yl)-5-(trifluoromethyl)pyridin-3-yl)-2-chloro-8-methyl-8-(trifluoromethyl)-7,8-dihydro-6H-pyrazolo[1,5-a]pyrrolo[2,3-e]pyrimidine-6-carboxamide] | 10 to 100 | 10 to 100 |  |
| C[C@@]1(C(F)(F)F)CN(C(=O)Nc2cnc(OC(F)F)c(Cl)c2)c2cnc3cc(Cl)nn3c21 [compound 49, (R)-2-chloro-N-(5-chloro-6-(difluoromethoxy)pyridin-3-yl)-8-methyl-8-(trifluoromethyl)-7,8-dihydro-6H-pyrazolo[1,5-a]pyrrolo[2,3-e]pyrimidine-6-carboxamide] | 10 to 100 | 10 to 100 |  |
| C[C@@]1(C(F)(F)F)CN(C(=O)Nc2cnc(-n3cncn3)c(Cl)c2)c2cnc3cc(F)nn3c21 [compound 202, (R)-N-(5-chloro-6-(1H-1,2,4-triazol-1-yl)pyridin-3-yl)-2-fluoro-8-methyl-8-(trifluoromethyl)-7,8-dihydro-6H-pyrazolo[1,5-a]pyrrolo[2,3-e]pyrimidine-6-carboxamide] | 100 to 1000 | 10 to 100 | 10 to 100 |
| C[C@@]1(C(F)(F)F)CN(C(=O)Nc2cc(OC(F)F)cc(O[C@H]3CCNC3)n2)c2cnc3cc(Cl)nn3c21 [compound 133, (R)-2-chloro-N-(4-(difluoromethoxy)-6-(((S)-pyrrolidin-3-yl)oxy)pyridin-2-yl)-8-methyl-8-(trifluoromethyl)-7,8-dihydro-6H-pyrazolo[1,5-a]pyrrolo[2,3-e]pyrimidine-6-carboxamide] | 100 to 1000 | 10 to 100 | 10 to 100 |
| CCN(C)C(=O)c1ncc(NC(=O)N2C[C@@](C)(C(F)(F)F)c3c2cnc2cc(Cl)nn32)cc1C(F)F [compound 149, (R)-2-chloro-N-(5-(difluoromethyl)-6-(ethyl(methyl)carbamoyl)pyridin-3-yl)-8-methyl-8-(trifluoromethyl)-7,8-dihydro-6H-pyrazolo[1,5-a]pyrrolo[2,3-e]pyrimidine-6-carboxamide] | 10 to 100 | 10 to 100 |  |
| COc1cn(-c2ncc(NC(=O)N3C[C@@](C)(C(F)(F)F)c4c3cnc3cc(Cl)nn43)cc2Cl)nn1 [compound 95, (R)-2-chloro-N-(5-chloro-6-(4-methoxy-1H-1,2,3-triazol-1-yl)pyridin-3-yl)-8-methyl-8-(trifluoromethyl)-7,8-dihydro-6H-pyrazolo[1,5-a]pyrrolo[2,3-e]pyrimidine-6-carboxamide] |  | 10 to 100 | 10 to 100 |
| C[C@@]1(C(F)(F)F)CN(C(=O)Nc2cnc(N3CCOC3=O)c(C(F)F)c2)c2cnc3cc(Cl)nn3c21 [compound 113, (R)-2-chloro-N-(5-(difluoromethyl)-6-(2-oxooxazolidin-3-yl)pyridin-3-yl)-8-methyl-8-(trifluoromethyl)-7,8-dihydro-6H-pyrazolo[1,5-a]pyrrolo[2,3-e]pyrimidine-6-carboxamide] | 100 to 1000 | 10 to 100 | 10 to 100 |
| Cc1cc(NC(=O)N2C[C@@](C)(C(F)(F)F)c3c2cnc2cc(F)nn32)cnc1-n1nccn1 [compound 125, (R)-2-fluoro-8-methyl-N-(5-methyl-6-(2H-1,2,3-triazol-2-yl)pyridin-3-yl)-8-(trifluoromethyl)-7,8-dihydro-6H-pyrazolo[1,5-a]pyrrolo[2,3-e]pyrimidine-6-carboxamide] | 10 to 100 | 10 to 100 |  |
| C[C@@]1(C(F)(F)F)CN(C(=O)Nc2cnc(-n3nccn3)c(C(F)(F)F)c2)c2cnc3cc(F)nn3c21 [compound 181, (R)-N-(6-(2H-1,2,3-triazol-2-yl)-5-(trifluoromethyl)pyridin-3-yl)-2-fluoro-8-methyl-8-(trifluoromethyl)-7,8-dihydro-6H-pyrazolo[1,5-a]pyrrolo[2,3-e]pyrimidine-6-carboxamide] | 10 to 100 | 10 to 100 |  |
| C[C@@]1(C(F)(F)F)CN(C(=O)Nc2cnc(-n3nccn3)c(Cl)c2)c2cnc3cc(F)nn3c21 [compound 39, (R)-N-(5-chloro-6-(2H-1,2,3-triazol-2-yl)pyridin-3-yl)-2-fluoro-8-methyl-8-(trifluoromethyl)-7,8-dihydro-6H-pyrazolo[1,5-a]pyrrolo[2,3-e]pyrimidine-6-carboxamide] | 10 to 100 | 10 to 100 |  |
| O=C(Nc1cnc(-n2nccn2)c(Cl)c1)N1CC(O)(C(F)(F)F)c2c1cnc1cc(Cl)nn21 (stereo not shown) [compound 201, 2-chloro-N-(5-chloro-6-(2H-1,2,3-triazol-2-yl)pyridin-3-yl)-8-hydroxy-8-(trifluoromethyl)-7,8-dihydro-6H-pyrazolo[1,5-a]pyrrolo[2,3-e]pyrimidine-6-carboxamide] | 10 to 100 | 10 to 100 |  |
| C[C@@]1(C(F)(F)F)CN(C(=O)Nc2cc(C(F)(F)F)ncc2F)c2cnc3cc(Cl)nn3c21 [compound 96, (R)-2-chloro-N-(5-fluoro-2-(trifluoromethyl)pyridin-4-yl)-8-methyl-8-(trifluoromethyl)-7,8-dihydro-6H-pyrazolo[1,5-a]pyrrolo[2,3-e]pyrimidine-6-carboxamide] |  | 100 to 1000 | 10 to 100 |
| CN(C(=O)c1ncc(NC(=O)N2C[C@@](C)(C(F)(F)F)c3c2cnc2cc(Cl)nn32)cc1C(F)F)C1CC1 [compound 151, (R)-2-chloro-N-(6-(cyclopropyl(methyl)carbamoyl)-5-(difluoromethyl)pyridin-3-yl)-8-methyl-8-(trifluoromethyl)-7,8-dihydro-6H-pyrazolo[1,5-a]pyrrolo[2,3-e]pyrimidine-6-carboxamide] | 10 to 100 | 10 to 100 |  |
| C[C@@]1(C(F)(F)F)CN(C(=O)Nc2cnc(-n3nccn3)c(C#N)c2)c2cnc3cc(F)nn3c21 [compound 91, (R)-N-(5-cyano-6-(2H-1,2,3-triazol-2-yl)pyridin-3-yl)-2-fluoro-8-methyl-8-(trifluoromethyl)-7,8-dihydro-6H-pyrazolo[1,5-a]pyrrolo[2,3-e]pyrimidine-6-carboxamide] |  | 10 to 100 |  |
| COc1cnn(-c2ncc(NC(=O)N3C[C@@](C)(C(F)(F)F)c4c3cnc3cc(Cl)nn43)cc2Cl)n1 [compound 92, (R)-2-chloro-N-(5-chloro-6(4-methoxy-2H-1,2,3-triazol-2-yl)pyridin-3-yl)-8-methyl-8-(trifluoromethyl)-7,8-dihydro-6H-pyrazolo[1,5-a]pyrrolo[2,3-e]pyrimidine-6-carboxamide] |  | 10 to 100 |  |
| CC(O)c1cnn(-c2ncc(NC(=O)N3C[C@@](C)(C(F)(F)F)c4c3cnc3cc(F)nn43)cc2C(F)F)n1 (stereo partly drawn) [compound 191, (8R)-N-(5-(difluoromethyl)-6-(4-(1-hydroxyethyl)-2H-1,2,3-triazol-2-yl)pyridin-3-yl)-2-fluoro-8-methyl-8-(trifluoromethyl)-7,8-dihydro-6H-pyrazolo[1,5-a]pyrrolo[2,3-e]pyrimidine-6-carboxamide] | 10 to 100 | 10 to 100 |  |
| C[C@@]1(C(F)(F)F)CN(C(=O)Nc2cnc(-n3nccn3)c(C(F)F)c2)c2cnc3cc(Cl)nn3c21 [compound 35, (R)-2-chloro-N-(5-(difluoromethyl)-6-(2H-1,2,3-triazol-2-yl)pyridin-3-yl)-8-methyl-8-(trifluoromethyl)-7,8-dihydro-6H-pyrazolo[1,5-a]pyrrolo[2,3-e]pyrimidine-6-carboxamide] | 10 to 100 | 10 to 100 |  |
